# Source: patent US7829560B2, “1,4-disubstituted naphthalenes as inhibitors of P38 MAP kinase” (Arqule, Inc., priority 2004, dated 2010)
# Several values for one entry are separate records, joined by “and”; a condition that tells them apart may be missing. Equal values may be shown once.
# What was measured:
# [1] = system: TNFα release from THP-1 cells; experiment: Inhibition of TNFα release from LPS-stimulated THP-1 cells, ELISA; format: cell-based; conditions: Homo sapiens, THP-1, THP-1 cells, read-out: [CELL] THP-1, IC50, TNF ALPHA, ELISA
# Method in brief: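 Human THP-1 monocytes, 10^6 cells/ml in RPMI with 10% FBS, no serum or 1% HSA, preincubated 30 min at 37 °C with compound (≤0.5% DMSO), then stimulated with 10 μg/ml LPS for 18 h. Supernatant TNFα measured by ELISA; IC50 from non-linear dose-response regression.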
# p38α = target: T1, p38α (Homo sapiens, UniProt Q16539); experiment: p38 MAP Kinase assay: inhibition of ATF2 phosphorylation, ELISA; format: biochemical; conditions: for IC50: ATF2 phosphorylation, read-out: [ENZ] P38 ALPHA, IC50, ELISA; for inhibition at 10 µM: substrate ATF2, read-out: [ENZ] P38 ALPHA, PCT INH, ELISA (10 uM;ATF2) (Percent)
# T1 construct: p38 MAP Kinases are recombinant human full-length proteins with an amino-terminal GST fusion; GST (N); purchased Upstate Biotechnology Inc; host or cells: E. coli
# T1 sequence (Q16539 whole entry, the tested form may be a part): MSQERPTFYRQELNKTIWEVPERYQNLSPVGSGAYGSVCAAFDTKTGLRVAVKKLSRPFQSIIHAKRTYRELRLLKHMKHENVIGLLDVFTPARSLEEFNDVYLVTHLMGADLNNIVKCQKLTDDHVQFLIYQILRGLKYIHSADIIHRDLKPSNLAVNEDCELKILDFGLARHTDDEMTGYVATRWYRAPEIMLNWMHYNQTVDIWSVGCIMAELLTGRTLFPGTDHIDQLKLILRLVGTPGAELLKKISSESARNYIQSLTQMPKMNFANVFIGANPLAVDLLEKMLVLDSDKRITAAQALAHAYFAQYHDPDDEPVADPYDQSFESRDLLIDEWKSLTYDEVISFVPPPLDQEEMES
# Method in brief: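 GST-tagged full-length human p38 MAP kinase with GST-ATF2 (aa 19–96; 1.25 μM) and 40 μM ATP in HEPES pH 7.5 buffer, without (Method I) or with (Method II) 1% human serum albumin. Compound pre-incubated 15 min at room temperature; reaction 30 min at 37 °C; ATF2 Thr69 phosphorylation measured by ELISA (A450).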
IC50 [1] [nM],IC50 (p38α),melting point [°C],inhibition at 10 µM (p38α) [%],SMILES
241,7.9 nM,86 to 87,,"CCN1CCN(c2nccc(Oc3ccc(NC(=O)c4cc(F)cc(N5CCCCC5)c4)c4ccccc34)n2)CC1 [Compound B398, N-(4-{[2-(4-Ethylpiperazin-1-yl)pyrimidin-4-yl]oxy}-1-naphthyl)-3-fluoro-5-piperidin-1-ylbenzamide]"
252,5 nM,106 to 108,,"O=C(Nc1ccc(Oc2ccnc(N3CCC(O)CC3)n2)c2ccccc12)c1cc(F)cc(N2CCOCC2)c1 [Compound B332, 3-Fluoro-N-(4-{[2-(4-hydroxypiperidin-1-yl)pyrimidin-4-yl]oxy}-1-naphthyl)-5-morpholin-4-ylbenzamide]"
37.1,26.4 nM,118 to 120,,"O=C(Nc1ccc(Oc2ccnc(NC3CCCCC3)n2)c2ccccc12)c1cc(F)cc(N2CCCCC2)c1 [Compound B371, N-(4-{[2-(cyclohexylamino)pyrimidin-4-yl]oxy}-1-naphthyl)-3-fluoro-5-piperidin-1-ylbenzamide]"
254,48.3 nM,135 to 136,,"COC(CN(C)c1nccc(Oc2ccc(NC(=O)c3cc(F)cc(N4CCCCC4)c3)c3ccccc23)n1)OC [Compound B403, N-[4-({2-[(2,2-Dimethoxyethyl)(methyl)amino]pyrimidin-4-yl}oxy)-1-naphthyl]-3-fluoro-5-piperidin-1-ylbenzamide]"
386,28.3 nM,214 to 216,,"CC(C)(C)OC(=O)NC1CCN(c2nccc(Oc3ccc(NC(=O)c4cc(F)cc(N5CCOCC5)c4)c4ccccc34)n2)CC1 [Compound B366, t-Butyl-{1-[4-({4-[(3-fluoro-5-morpholin-4-ylbenzoyl)amino]-1-naphthyl}oxy)pyrimidin-2-yl]piperidin-4-yl}-carbamate]"
330,21.1 nM,96 to 98,,"COCCN(C)c1nccc(Oc2ccc(NC(=O)c3cc(F)cc(N4CCOCC4)c3)c3ccccc23)n1 [Compound B370, 3-Fluoro-N-[4-({2-[(2-methoxyethyl)(methyl)amino]pyrimidin-4-yl}oxy)-1-naphthyl]-5-morpholin-4-ylbenzamide]"
700,56.1 nM,116 to 117,,"C#CCN(C)c1nccc(Oc2ccc(NC(=O)c3cc(F)cc(N4CCCCC4)c3)c3ccccc23)n1 [Compound B407, 3-Fluoro-N-[4-({2-[methyl(prop-2-yn-1-yl)amino]pyrimidin-4-yl}oxy)-1-naphthyl]-5-piperidin-1-ylbenzamide]"
515,,111 to 113,,"O=C(Nc1ccc(Oc2ccnc(N3CCCC3)n2)c2ccccc12)c1cc(F)cc(N2CCCCC2)c1 [Compound B377, 3-Fluoro-piperidin-1-yl-N-{4-[(2-pyrrolidin-1-ylpyrimidin-4-yl)oxy]-1-naphthyl}benzamide]"
26.2,1.8 nM,,,"O=C(Nc1ccc(Oc2ccnc(NCC3CCCO3)n2)c2ccccc12)c1cc(F)cc(N2CCCCC2)c1 (stereo not drawn) [Compound B386, 3-Fluoro-5-piperidin-1-yl-N-[4-({2-[(tetrahydrofuran-2-ylmethyl)amino]pyrimidin-4-yl}oxy)-1-naphthyl]benzamide]"
> 10000,> 10000 nM,,,O=C(Nc1ccc(OCCN2CCOCC2)c2ccccc12)c1cccc(-c2cccc(OC(F)(F)F)c2)c1 [Compound B297]
> 10000,7370 nM,,,CSc1cccc(-c2cccc(C(=O)Nc3ccc(OCCN4CCOCC4)c4ccccc34)c2)c1 [Compound B298]
> 1000,264 nM,,,CN(C)C(=O)[C@@H]1CCCN1c1nccc(Oc2ccc(NC(=O)c3cc(F)cc(N4CCOCC4)c3)c3ccccc23)n1 [Compound B356]
10100,2720 nM,,,O=C(Nc1ccc(OCCN2CCOCC2)c2ccccc12)c1cccc(-c2cccc(F)c2F)c1 [Compound B288]
41.2,1 nM,,,"Cc1cc(F)ccc1-c1cccc(C(=O)Nc2ccc(Oc3ccnc(NCC(C)(C)CN(C)C)n3)c3ccccc23)c1 [Compound B314, 4′-Fluoro-2′-methyl-biphenyl-3-carboxylic acid {4-[2-(3-dimethylamino-2,2-dimethyl-propylamino)-pyrimidin-4-yloxy]-naphthalen-1-yl}-amide]"
> 1000,107 nM,,,"O=C(Nc1ccc(Oc2ccnc(N3CCCCC3)n2)c2ccccc12)c1cc(F)cc(N2CCCCC2)c1 [Compound B375, 3-Fluoro-5-piperidin-1-yl-N-{4-[(2-piperidin-1-ylpyrimidin-4-yl)oxy]-1-naphthyl}benzamide]"
55.4,3 nM,,,"CCN1CCC[C@H]1CNc1nccc(Oc2ccc(NC(=O)c3cc(F)cc(N4CCCCC4)c3)c3ccccc23)n1 [Compound B419, N-(4-{[2-({[(2S)-1-Ethylpyrrolidin-2-yl]methyl}amino)pyrimidin-4-yl]oxy}-1-naphthyl)-3-fluoro-5-piperidin-1-ylbenzamide]"

# Continued, molecule first:
SMILES,IC50 [1] [nM],IC50 (p38α),melting point [°C],inhibition at 10 µM (p38α) [%]
"CSc1nccc(Oc2ccc(NC(=O)c3cccc(OC(C)(C)C)c3)c3ccccc23)n1 [Compound B306, 3-tert-Butoxy-N-[4-(2-methylsulfanyl-pyrimidin-4-yloxy)-naphthalen-1-yl]-benzamide]",152,74.5 nM,135 to 136,
"CCC1CCC(Oc2cc(F)cc(C(=O)Nc3ccc(OCc4ccncc4)c4ccccc34)c2)CC1 (stereo not drawn) [Compound B228, 3-[(4-Ethylcyclohexyl)oxy]-5-fluoro-N-[4-(pyridin-4-ylmethoxy)-1-naphthyl]benzamide]",,> 10000 nM,93 to 95,
"O=C(Nc1ccc(OCc2ccoc2)c2ccccc12)c1cc(F)cc(N2CCCCC2)c1 [Compound B180, 3-Fluoro-N-[4-(3-furylmethoxy)-1-naphthyl]-5-piperidin-1-ylbenzamide]",,4040 nM,152 to 153,
"O=C(Nc1ccc(OCCN2CCCC2=O)c2ccccc12)c1cc(F)cc(N2CCOCC2)c1 [Compound B224, 3-Fluoro-5-morpholin-4-yl-N-{4-[2-(2-oxopyrrolidin-1-yl)ethoxy]-1-naphthyl}benzamide]",,6550 nM,172 to 173,
"O=C(Nc1ccc(OCCN2CCOCC2)c2ccccc12)c1cc(F)cc(OC2CCOCC2)c1 [Compound B226, 3-Fluoro-N-[4-(2-morpholin-4-ylethoxy)-1-naphthyl]-5-(tetrahydro-2H-pyran-4-yloxy)benzamide]",,5390 nM,75 to 77,
"O=C(Nc1ccc(OCc2ccncc2)c2ccccc12)c1cc(F)cc(N2CCOCC2)c1 [Compound B191, 3-Fluoro-5-morpholin-4-yl-N-[4-(pyridin-4-ylmethoxy)-1-naphthyl]benzamide]",,52.7 nM and 61 nM,157 to 159,
"O=C(Nc1ccc(OCCCN2CCC3(CC2)OCCO3)c2ccccc12)c1cc(F)cc(N2CCCCC2)c1 [Compound B166, N-{4-[3-(1,4-Dioxa-8-aza-spiro[4.5]dec-8-yl)-propoxy]-naphthalen-1-yl}-3-fluoro-5-piperidin-1-yl-benzamide]",,4810 nM,70 to 72,
"O=C(Nc1ccc(OCCN2CCCC2=O)c2ccccc12)c1cc(F)cc(N2CCCCC2)c1 [Compound B181, 3-Fluoro-N-{4-[2-(2-oxopyrrolidin-1-yl)ethoxy]-1-naphthyl}-5-piperidin-1-ylbenzamide]",,2350 nM,161 to 162,
"CSc1nccc(Oc2ccc(NC(=O)c3cccc(-c4ccc(F)cc4C)c3)c3ccccc23)n1 [Compound B269, 4′-Fluoro-2′-methyl-biphenyl-3-carboxylic acid [4-(2-methylsulfanylpyrimidin-4-yloxy)-naphthalen-1-yl]-amide]",152,162 nM,,
"CC(C)(C)CNc1cccc(C(=O)Nc2ccc(OCCN3CCOCC3)c3ccccc23)c1 [Compound B173, 3-(2,2-Dimethyl-propylamino)-N-[4-(2-morpholin-4-yl-ethoxy)-naphthalen-1-yl]-benzamide]",2280,735 nM,,89.5
CN(C)c1ccc(C(=O)Nc2ccc(OCCN3CCOCC3)c3ccccc23)cc1 [Compound B34],> 10000,10700 nM,,
Cc1cc(COc2ccc(NC(=O)c3cc(F)cc(N4CCC(C)CC4)c3)c3ccccc23)no1 [Compound B243],> 10000,> 10000 nM,,
O=C(Nc1ccc(OCCN2CCOCC2)c2ccccc12)c1cccc(-c2ccccc2Cl)c1 [Compound B101],2030,864 nM,,87
COc1ccc(-c2cccc(C(=O)Nc3ccc(OCCN4CCOCC4)c4ccccc34)c2)cc1 [Compound B284],> 10000,> 10000 nM,,
"CC1CCC(Oc2cc(F)cc(C(=O)Nc3ccc(OCCN4CCOCC4)c4ccccc34)c2)CC1 (stereo not drawn) [Compound B234, 3-Fluoro-5-[(4-methylcyclohexyl)oxy]-N-[4-(2-morpholin-4-ylethoxy)-1-naphthyl]benzamide]",3190,1050 nM,,
